Literature values in patent publication US20040228911A1, “Vinorelbine compositions and methods of use” (NeoPharm, Inc., priority 2001, published 2004).
Where a name gives a salt, the structure may show the parent alone.

What was measured:
[1] = distilled water
axonal microtubules = settings: intact tectal plates from mouse embryos
mitotic microtubules = settings: intact tectal plates from mouse embryos

Structure (SMILES) | aqueous solubility [1] | concentration producing depolymerization of axonal microtubules (axonal microtubules) | concentration inhibiting mitotic microtubule formation, inducing a blockade of cells at metaphase (mitotic microtubules)
CCC1=C[C@@H]2CN(C1)Cc1c([nH]c3ccccc13)[C@@](C(=O)OC)(c1cc3c(cc1OC)N(C)[C@H]1[C@@](O)(C(=O)OC)[C@H](OC(C)=O)[C@]4(CC)C=CCN5CC[C@]31[C@@H]54)C2 [Vinorelbine tartrate, 3′,4′-didehydro-4′-deoxy-C-norvincaleukoblastine [R—(R,R)-2,3-dihydroxybutanedioate (1:2)(salt)]] | less than 1000 mg/mL | – | –
CCC1=C[C@@H]2CN(C1)Cc1c([nH]c3ccccc13)[C@@](C(=O)OC)(c1cc3c(cc1OC)N(C)[C@H]1[C@@](O)(C(=O)OC)[C@H](OC(C)=O)[C@]4(CC)C=CCN5CC[C@]31[C@@H]54)C2 [vinorelbine, 3′,4′-didehydro-4′-deoxy-C-norvincaleukoblastine [R—(R,R)-2,3-dihydroxybutanedioate (1:2)(salt)]] | – | 40 µM | 2 µM
CC[C@]1(O)C[C@H]2CN(CCc3c([nH]c4ccccc34)[C@@](C(=O)OC)(c3cc4c(cc3OC)N(C=O)[C@H]3[C@@](O)(C(=O)OC)[C@H](OC(C)=O)[C@]5(CC)C=CCN6CC[C@]43[C@@H]65)C2)C1 [vincristine] | – | 5 µM | 2 µM
CC[C@]1(O)C[C@@H]2CN(CCc3c([nH]c4ccccc34)[C@@](C(=O)OC)(c3cc4c(cc3OC)N(C)[C@H]3[C@@](O)(C(=O)OC)[C@H](OC(C)=O)[C@]5(CC)C=CCN6CC[C@]43[C@@H]65)C2)C1 [vinblastine] | – | 30 µM | 2 µM
